# Measurements: paper PMC3441724, “Mechanistic Insights into Validoxylamine A 7'-Phosphate Synthesis by VldE Using the Structure of the Entire Product Complex” (PLoS ONE, 2012)
# T1: VldE (Streptomyces hygroscopicus, UniProt Q15JG1)
# T1 construct: (His)6-tagged full-length protein, 497 residues per monomer, expressed in E. coli BL21(DE3) pLysS; homodimer; residues 1, 2 and 482-497 not modelled
# T1 sequence (Q15JG1 1-497): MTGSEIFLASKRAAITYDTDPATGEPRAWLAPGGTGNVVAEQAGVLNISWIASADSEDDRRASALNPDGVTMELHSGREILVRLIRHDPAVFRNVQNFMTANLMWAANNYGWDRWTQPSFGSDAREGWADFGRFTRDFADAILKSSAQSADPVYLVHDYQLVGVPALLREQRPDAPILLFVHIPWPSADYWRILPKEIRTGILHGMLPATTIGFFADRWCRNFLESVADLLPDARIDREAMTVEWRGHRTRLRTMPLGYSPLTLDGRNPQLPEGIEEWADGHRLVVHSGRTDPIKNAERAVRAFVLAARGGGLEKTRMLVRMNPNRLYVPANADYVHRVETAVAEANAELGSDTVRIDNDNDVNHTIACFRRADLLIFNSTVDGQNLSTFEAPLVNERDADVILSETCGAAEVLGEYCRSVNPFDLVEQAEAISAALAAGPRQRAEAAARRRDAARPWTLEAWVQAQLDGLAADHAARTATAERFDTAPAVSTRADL
# B1: VldE from S. hygroscopicus subsp. limoneus (enzyme)
# chain: T1 sequence (Q15JG1 1-497)
# notes: VldE, pseudo-glycosyltransferase of Streptomyces hygroscopicus subsp. limoneus; 994 possible residues for two monomers (497 each); the apo model lacks residues 1, 2 and 482-497; also called pseudo-glycosyltransferase VldE; (His)6-tagged VldE
# How the values were obtained:
# [1] = biological target: T1, VldE; experiment: X-ray crystal structure; assay type: binding; details: ternary complex with GDP, pH 8.0, open conformation
# [2] = biological target: the molecule itself; experiment: crystal structure; sitting drop vapor diffusion, 293 K, Tris-HCl pH 8.0 with polyethylene glycol 3,350; two monomers modeled within the asymmetric unit (apo, GDP, GDP+VDO), six monomers in VldE•GDP•TRE
molecule,measurement,setting,value
"OC[C@H]1O[C@H](O[C@H]2O[C@H](CO)[C@@H](O)[C@H](O)[C@H]2O)[C@H](O)[C@@H](O)[C@@H]1O [TRE, trehalose]",X-ray crystal structure,"[1]; 2.81 Å, 3% trehalose, 1 mM GDP, 20 mM MgCl2, cyclitol binding sites, bound in two of six monomers",structure of VldE in complex with both GDP and trehalose (VldE•GDP•TRE)
"O=P(O)(O)OC[C@H]1C[C@H](N[C@H]2C=C(CO)[C@@H](O)[C@H](O)[C@H]2O)[C@H](O)[C@@H](O)[C@@H]1O [VDO, validoxylamine A 7′-phosphate]",X-ray crystal structure,"[1]; 2.11 Å, crystal soaked with 5 mM GDP and 10 mM VDO, cyclitol (donor and acceptor) sites",The first crystallographic structure of VldE in complex with the entirety of its products
B1,binding result,[2],binds
